Test results from ChEMBL document CHEMBL3045399, “A novel series of homoallylic amines as potential antimicrobials” (2012).
In brackets after ≈: the same amount, converted by molar mass. Activity calls are given as the source filed them. The rule behind the calls is not given here.

Experiments:
[1] = tested on: Pseudomonas aeruginosa; experiment: Antimicrobial activity against Pseudomonas aeruginosa after 16 hr by serial dilution method; assay type: functional
[2] = tested on: Escherichia coli; experiment: Antimicrobial activity against Escherichia coli after 16 hr by serial dilution method; assay type: functional
[3] = tested on: Bacillus subtilis; experiment: Antimicrobial activity against Bacillus subtilis after 16 hr by serial dilution method; assay type: functional
[4] = tested on: Staphylococcus aureus; experiment: Antimicrobial activity against Staphylococcus aureus after 16 hr by serial dilution method; assay type: functional
[5] = tested on: Pseudomonas aeruginosa; experiment: Antimicrobial activity against Pseudomonas aeruginosa at 1.6125 to 50 ug/ml after 16 hr by serial dilution method; assay type: functional, organism-based
[6] = tested on: Escherichia coli; experiment: Antimicrobial activity against Escherichia coli at 1.6125 to 50 ug/ml after 16 hr by serial dilution method; assay type: functional, organism-based
[7] = tested on: Bacillus subtilis; experiment: Antimicrobial activity against Bacillus subtilis at 1.6125 to 50 ug/ml after 16 hr by serial dilution method; assay type: functional, organism-based
[8] = tested on: Staphylococcus aureus; experiment: Antimicrobial activity against Staphylococcus aureus at 1.6125 to 50 ug/ml after 16 hr by serial dilution method; assay type: functional, organism-based

MIC [1] [µg/mL] | MIC [2] [µg/mL] | MIC [3] [µg/mL] | MIC [4] [µg/mL] | Structure (SMILES) | Activity [5] | Activity [6] | Activity [7] | Activity [8]
12.5 (≈ 34.6 µM) | 12.5 (≈ 34.6 µM) | 12.5 (≈ 34.6 µM) | 12.5 (≈ 34.6 µM) | C=CCC(Nc1cccc2ncsc12)c1cn(C(C)=O)c2ccccc12 (configuration not stated) |  |  |  | 
 | 25 (≈ 79.8 µM) | 1.61 (≈ 5.15 µM) | 1.61 (≈ 5.15 µM) | C=CCC(Nc1cccc2ccccc12)c1cc2ccccc2o1 (configuration not stated) | inactive |  |  | 
6.25 (≈ 24.6 µM) | 3.12 (≈ 12.3 µM) | 6.25 (≈ 24.6 µM) | 6.25 (≈ 24.6 µM) | C=CCC(Nc1ccc(C#N)cc1)c1ccsc1 (configuration not stated) |  |  |  | 
1.61 (≈ 5.17 µM) | 1.61 (≈ 5.17 µM) | 1.61 (≈ 5.17 µM) | 3.12 (≈ 10 µM) | C=CCC(Nc1ccc(Cl)cc1F)c1c(F)cccc1F (configuration not stated) |  |  |  | 
3.12 (≈ 6.94 µM) | 3.12 (≈ 6.94 µM) | 3.12 (≈ 6.94 µM) | 3.12 (≈ 6.94 µM) | C=CCC(Nc1ccc(Oc2ccc(Cl)cc2)cc1)c1ccc(-c2ccccc2Cl)o1 (configuration not stated) |  |  |  | 
25 (≈ 91.4 µM) | 25 (≈ 91.4 µM) | 25 (≈ 91.4 µM) | 25 (≈ 91.4 µM) | C=CCC(Nc1cccc2ccccc12)c1ccccc1 (configuration not stated) |  |  |  | 
 |  |  |  | C=CCC(Nc1ccc(C(C)(C)C)cc1)C1CC1 (configuration not stated) | inactive | inactive | inactive | inactive
3.12 (≈ 9.97 µM) | 3.12 (≈ 9.97 µM) | 3.12 (≈ 9.97 µM) | 1.61 (≈ 5.15 µM) | C=CCC(NCc1ccc(F)c(F)c1)c1cc2ccccc2o1 (configuration not stated) |  |  |  | 
25 (≈ 79.5 µM) | 6.25 (≈ 19.9 µM) | 6.25 (≈ 19.9 µM) | 6.25 (≈ 19.9 µM) | C=CCC(Nc1ccc(N2CCOCC2)cc1)C1CCCCC1 (configuration not stated) |  |  |  | 
3.12 (≈ 11 µM) | 3.12 (≈ 11 µM) | 3.12 (≈ 11 µM) | 3.12 (≈ 11 µM) | C=CCC(Nc1ccc(F)cc1)c1cccc(OCC)c1 (configuration not stated) |  |  |  | 
 |  | 1.61 (≈ 5.9 µM) | 1.61 (≈ 5.9 µM) | C=CCC(Nc1ccc(F)c(C(F)(F)F)c1)C1CC1 (configuration not stated) | inactive | inactive |  | 
3.12 (≈ 9.91 µM) | 3.12 (≈ 9.91 µM) | 3.12 (≈ 9.91 µM) | 3.12 (≈ 9.91 µM) | C=CCC(Nc1ccc(C(C)(C)C)cc1)c1ccc(F)cc1F (configuration not stated) |  |  |  | 
1.61 (≈ 5.58 µM) | 1.61 (≈ 5.58 µM) | 1.61 (≈ 5.58 µM) | 1.61 (≈ 5.58 µM) | C=CCC(Nc1cccc(F)c1)c1cc(OC)ccc1F (configuration not stated) |  |  |  | 
1.61 (≈ 5.46 µM) | 1.61 (≈ 5.46 µM) | 1.61 (≈ 5.46 µM) | 1.61 (≈ 5.46 µM) | C=CCC(Nc1ccc(F)cc1F)c1ccc(F)cc1F (configuration not stated) |  |  |  | 
25 (≈ 61.6 µM) | 6.25 (≈ 15.4 µM) | 3.12 (≈ 7.7 µM) | 3.12 (≈ 7.7 µM) | C=CCOc1ccccc1C(CC=C)Nc1ccc(Oc2ccc(Cl)cc2)cc1 (configuration not stated) |  |  |  | 
1.61 (≈ 5.15 µM) | 1.61 (≈ 5.15 µM) | 1.61 (≈ 5.15 µM) | 1.61 (≈ 5.15 µM) | C=CCC(Nc1cc(F)c(F)cc1F)c1ccc(F)cc1F (configuration not stated) |  |  |  | 
12.5 (≈ 48.6 µM) | 12.5 (≈ 48.6 µM) | 12.5 (≈ 48.6 µM) | 6.25 (≈ 24.3 µM) | C=CCC(Nc1cc(C)ccc1C)C1CCCCC1 (configuration not stated) |  |  |  | 

Structure (SMILES) | MIC [1] [µg/mL] | MIC [2] [µg/mL] | MIC [3] [µg/mL] | MIC [4] [µg/mL] | Activity [5] | Activity [6] | Activity [7] | Activity [8]
CO/N=C(\C(=O)N[C@@H]1C(=O)N2C(C(=O)O)=C(CSc3nc(=O)c(O)nn3C)CS[C@H]12)c1csc(N)n1 [CEFTRIAXONE] | 1.61 (≈ 2.91 µM) | 1.61 (≈ 2.91 µM) | 1.61 (≈ 2.91 µM) | 3.12 (≈ 5.63 µM) |  |  |  | 
